Values quoted from earlier work, collected in US20080255186A1, “Pyrazolo[3,4-B]Pyridine Compound, and Its Use as a Pde4 Inhibitor” (priority 2005, published 2008).

Tests used:
[1] = system: atopic dermatitis patients; conditions: 0.5% ointment, twice daily topical application; cited from earlier work
COPD patients = conditions: cited from earlier work
[2] = system: atopic dermatitis patients; conditions: 0.15% cream vs vehicle and hydrocortisone 17-butyrate (0.1%) cream; cited from earlier work
[3] = system: humans with histories of allergic rhinitis; conditions: orally 500 ug once daily for 9 days, compared to placebo; cited from earlier work

Structure (SMILES): COc1ccc(C2CNC(=O)NC2)cc1O[C@H]1C[C@@H]2CC[C@H]1C2 [CP80,633]
- Effect on inflammatory parameters in atopic dermatitis patients [1]: reductions of inflammatory parameters

Structure (SMILES): COc1ccc([C@]2(C#N)CC[C@@H](C(=O)O)CC2)cc1OC1CCCC1 [cilomilast]
- Effect on forced expiratory volume (FEV1) in COPD patients (COPD patients; cilomilast: 15 mg orally twice daily): appears to improve forced expiratory volume
- Antiinflammatory effects in COPD patients (COPD patients; human, in vivo): appears to have antiinflammatory effects in COPD patients

Structure (SMILES): Nc1nc2c([nH]1)c(=O)n(CC1CC1)c(=O)n2CC1CC1 [cipamfylline]
- Efficacy in treatment of atopic dermatitis patients [2]: significantly more effective than vehicle, but significantly less effective than hydrocortisone 17-butyrate (0.1%) cream

Structure (SMILES): O=C(Nc1c(Cl)cncc1Cl)c1ccc(OC(F)F)c(OCC2CC2)c1 [roflumilast]
- Effect on rhinal airflow [3]: effective in improving rhinal airflow
